Earlier results as cited in patent publication US20220133691A1, “LASOFOXIFENE TREATMENT OF VVA AND OSTEOPOROSIS IN SURVIVORS OF BREAST CANCER AND OTHER MALIGNANCIES” (Sermonix Pharmaceuticals, Inc., priority 2016, published 2022).

Test system: post-menopausal women with osteoporosis
Settings: PEARL trial

In the case of `Oc1ccc2c(c1)CC[C@H](c1ccccc1)[C@@H]2c1ccc(OCCN2CCCC2)cc1` [lasofoxifene], the risk of osteoporosis (Cummings et al., NEJM 2010) is given as “reduce the risk of osteoporosis” and the “risk of breast cancer” value (post-menopausal women with osteoporosis, LaCroix et al., JNCI 2010) is given as “reduced the risk of breast cancer”.
